How the values were obtained:
GFAP = GFAP immunofluorescence of lumbar spinal cord dorsal horn (astrocyte activation); assay type: in vivo, mice; conditions: two rounds of cisplatin, then 3 doses of 10 mg/kg
From the text: For quantification of astrocyte and microglia activation, lumbar spinal cords were collected on day 22. This collection day was after completion of cisplatin treatment and 3 injections of compound 001. […] Spinal cords were processed and stained with antibodies specific for GFAP and Iba-1. Images were captured under blinded conditions from the lumbar dorsal horn using a Leica SPE confocal microscope (Leica Microsystems, Buffalo Grove, Ill.).
For assessing astrocyte activation, paraformaldehyde fixed frozen 6 μm sections of lumbar spinal cord (L1-L6) were incubated with an antibody against glial fibrillary acidic protein (GFAP) (Rabbit; Abcam, Cambridge, Mass.) followed by Alexa-594-goat anti-rabbit IgG (Life Technologies, Carlsbad, Calif.) as described (Zhang H, et al. Evidence that spinal astrocytes but not microglia contribute to the pathogenesis of Paclitaxel-induced painful neuropathy. J. Pain, 2012; 13(3):293-303). Images were captured using a Leica SPE confocal microscope (Leica Microsystems, Buffalo Grove, Ill.). GFAP staining intensity was quantified using Image J software for percent positive GFAP staining in which intensity thresholds were maintained between samples. All immunofluorescence analysis were done by an experimenter blinded to the treatment groups.

[1] = system: mitochondrial respiration in tibial nerves; test: Mitochondrial bioenergetics analysis of tibial nerves (XF24); assay type: in vivo, mice
Method: Tibial nerves were collected on experimental day 30, when the mice have received 2 rounds of cisplatin treatment and 11 injections of compound 001. Tissues were placed into islet capture XF24 microplate (Seahorse Bioscience, North Billerica, Mass.) in XF media with the addition of 5.5 mM glucose, 0.5 mM sodium pyruvate and 1 mM glutamine. Oligomycin (12 μM), FCCP (Carbonyl cyanide 4-(trifluoromethoxy)phenylhydrazone, 20 μM), and Rotenone/Antimycin A (20 μM each) (Sigma-Aldrich, St. Louis, Mo.) were injected sequentially during the assay. An assay cycle with a combination of 3-min mix, 3-min wait, and 4-min measure was repeated 4 times for baseline rates and after each port injection. After the respiratory measures, tissues were harvested and the oxygen consumption rate (OCR) values were normalized to the total protein content of each well. Basal respiration, ATP-linked respiration, proton leak, and maximal respiratory capacity were determined as described previously (Brand M D, and Nicholls D G. Assessing mitochondrial dysfunction in cells. The Biochemical journal. 2011; 435(2):297-312; Ma J, et al. Heat shock protein 70 is necessary to improve mitochondrial bioenergetics and reverse diabetic sensory neuropathy following KU-32 therapy. The Journal of pharmacology and experimental therapeutics. 2014; 348(2):281-92). Briefly, the initial measurements provide a measure of the basal OCR in the absence of respiratory chain poisons. The amount of basal OCR that is coupled to ATP production was determined by addition of the ATP synthase inhibitor oligomycin, which decreased the basal OCR. […] Next, maximal respiratory capacity (MRC) was assessed by addition of the protonophore FCCP, which dissipates the mitochondrial membrane potential and promotes maximal OCR. Lastly, non-mitochondrial respiration was determined by the addition of rotenone and antimycin A, which inhibit the activities of mitochondrial respiratory chain complex I and complex III respectively.

[2] = system: cisplatin-induced spontaneous pain; test: Conditioned place preference test for spontaneous pain; assay type: in vivo, mice; conditions: cisplatin followed by two weeks of daily compound
Method: Spontaneous pain was tested using a conditioning paradigm with retigabine as the conditioned stimulus that was originally described in a rat model (Yang Q, et al. Persistent pain after spinal cord injury is maintained by primary afferent activity. The Journal of Neuroscience. 2014; 34(32):10765-9; Ahmed B, et al. Recent changes in practice of elective percutaneous coronary intervention for stable angina. Circ. Cardiovasc. Qual. Outcomes. 2011; 4(3):300-5.). Retigabine is a […] with a rapid onset of action but only brief duration (45-60 min). […] Mol. Pain. 2010; 6(49); Passmore G M, et al. KCNQ/M currents in sensory neurons: significance for pain therapy. The Journal of Neuroscience, 2003; 23(18):7227-36). Briefly, during pre-conditioning, mice were allowed to freely explore for 15 min the CPP apparatus. The CPP apparatus consisted of 2 chambers (18×20 cm, one dark, one white) connected by a 15 cm hallway (Stoelting, Wood Dale, Ill.). The time spent in the light chamber was recorded. During the conditioning phase, saline was injected intraperitoneally in the morning and the mice were then kept in the dark chamber for 20 min. Three hours later, the analgesic retigabine (#R-100, Alomone laboratory, Jerusalem, Israel) […] the mice were immediately placed in the light chamber for 20 min. Conditioning was repeated for four consecutive days. […]

acetylated α-tubulin = test: Western blot of acetylated α-tubulin in tibial nerves; assay type: in vivo; conditions: saline+compound and cisplatin+compound treated mice, 11 doses
Method: Tibial nerves retrieved from the XF24 assay plate were used for western blot analysis of levels of acetylated α-tubulin and mitochondrial proteins cytochrome c oxidase subunit IV (Cox IV), succinate dehydrogenase complex subunit A (SDHA) and voltage-dependent anion channel (VDAC). Tissues were homogenized in RIPA buffer (50 mM Tris-HCl, pH 7.5, 500 mM NaCl, 2.5 mM MgCl2, 1% NP-40, 10% glycerol) containing proteinase inhibitors by sonication and 10 μg of protein was separated by SDS/PAGE and transferred to PVDF membrane for immunoblot analyses. The membranes were blocked with 5% non-fat dry milk in PBST (phosphate-buffered saline containing 0.1% Tween 20) and probed with primary antibodies recognizing acetylated lysine (Rabbit monoclonal; Abcam, Cambridge, United Kingdom), α-tubulin (Rabbit polyclonal; Cell Signaling Technology, Danvers, Mass.), Cox IV (Mouse monoclonal; Life Technologies, Carlsbad, Calif.), SDHA (Rabbit polyclonal; Cell Signaling Technology, Danvers, Mass.) and VDAC (Rabbit polyclonal; Cell Signaling Technology, Danvers, Mass.) followed by HRP-conjugated anti-mouse, anti-rabbit, or anti-β-actin antibodies (Jackson Laboratory, Bar Harbor, Me.). […] The images were acquired using ImageQuant LAS 4000 (GE Healthcare Life Sciences, Little Chalfont, United Kingdom) and densitometrically analyzed using Image J software.

[3] = 2 rounds of cisplatin and 11 injections of compound

## O=C(NO)c1cnc(NC2(c3ccccc3)CCC(F)(F)CC2)nc1 [compound 001]
GFAP
  GFAP expression in dorsal horn of spinal cord: normalized GFAP expression to levels of saline-treated animals
[1]; [3]
  mitochondrial respiration (basal, ATP-linked, proton leak, maximal) in tibial nerves: normalized all aspects of the cisplatin-induced decrease in mitochondrial respiration
  non-mitochondrial respiration in tibial nerves: not altered
[1]; without cisplatin
  mitochondrial bioenergetics, compound alone: did not have any effect on mitochondrial bioenergetics
[2]
  change in time spent in retigabine-paired light chamber (spontaneous pain): did not develop a preference for the retigabine-paired light chamber
Acetylated α-tubulin
  α-tubulin acetylation in tibial nerves: increased α-tubulin acetylation
